How the values were obtained:
[1] = test system: KRAS dependent H441 cells; test: MTT assay of cell viability; assay type: cell-based, human; settings: H441, 0, 50, 100, 200 nM, 24 hours
Procedure: (§1) MTT assay is used to determine the cell viability. KRAS independent A549 and H460 and KRAS dependent H441 and H358 cell lines which are cultured overnight in a 10% FBS medium, are digested by trypsin to form cell suspensions, which are seeded at a suitable concentration on a 96-well plate with 100 μl/well, cultured in a CO2 incubator for 24 hours until the cells are completely attached, and RA-V (1) with a final concentration of 0, 50, 100, 200 nM is added to react for 24 hours, and then 20 μl of MTT solution (5 mg/ml in PBS, pH=7.4) is added to each well and continue to incubate for 4 hours, stop the culture, and carefully discard the culture supernatant in the wells. Add 150 μl DMSO to each well and shake for 10 minutes to fully dissolve the crystals. Select the wavelength of 490 nm, measure the light absorption value of each well on the enzyme-linked immunosorbent detector, record the results, draw the cell growth curve with time as the abscissa and absorbance value as the ordinate.

[2] = test system: KRAS dependent H358 cells; test: MTT assay of cell viability; assay type: cell-based, human; settings: H358, 0, 50, 100, 200 nM, 24 hours
Procedure: as §1

H460 cells = test: Western blot of Capsase3, BCL-2 and BCL-XL; assay type: cell-based, human
Procedure: (§2) […] A549 and H460 cells which are cultured overnight in a 10% FBS medium are seeded in a 24-well plate at an appropriate density, after 24 hours, the cells are collected to detect the expression levels of […] proteins BCL-2, BCL-XL and […]3 by the Western blot experiment.

A549 cells = test: Western blot of Capsase3, BCL-2 and BCL-XL; assay type: cell-based, human
Procedure: as §2

[3] = test system: KRAS dependent H441 cells; test: PI/Annexin V double staining, flow cytometry; assay type: cell-based, human; settings: H441, 24 hours
Procedure: (§3) KRAS independent A549 and H460 and KRAS dependent H441 and H358 cell lines which are cultured overnight in a 10% FBS medium, are digested by trypsin to form cell suspensions, which are seeded at a suitable concentration on a 6-well plate, after 24 h, RA-V (1) is added to treat for 24 hours, and are digested by trypsin, and centrifuge at 2000 rpm for 5-10 minutes at room temperature to collect cells; resuspend the cells once with pre-chilled 1×PBS (4° C.), centrifuge at 2000 rpm for 5-10 minutes, and wash the cells; add 300 μL of 1×Binding Buffer to resuspend the cells; add 5 μL of Annexin V-FITC and mix, and incubate for 15 minutes at room temperature away from light; add 5 μL of PI staining 5 minutes before the operation, and detect the cells by the flow cytometry.

[4] = test system: KRAS independent A549 cells; test: PI/Annexin V double staining, flow cytometry; assay type: cell-based, human; settings: A549, 24 hours
Procedure: as §3

[5] = test system: KRAS independent H460 cells; test: PI/Annexin V double staining, flow cytometry; assay type: cell-based, human; settings: H460, 24 hours
Procedure: as §3

[6] = test system: KRAS dependent H358 cells; test: PI/Annexin V double staining, flow cytometry; assay type: cell-based, human; settings: H358, 24 hours
Procedure: as §3

H358 cells = test: Western blot of Capsase3, BCL-2 and BCL-XL; assay type: cell-based, human
[7] = test system: KRAS mutant HCT116 nude mice xenograft; test: Human colon cancer xenograft in nude mice, tumor inhibition rate; assay type: in vivo, BABL/c nude mice; settings: injection via tail vein, once every other day, 14 days
Procedure: (§4) HCT116 is diluted with serum-free McCoy's 5a medium to 1×10^7 cells/mL, and 100 μL of the cell suspension is inoculated subcutaneously in the left armpit of BABL/c nude mice and grown for 7 days to form a tumor-bearing mouse model. The tumor-bearing mice with good growth are inoculated and randomly divided into groups. The RA-V nano-micelle injection prepared in Embodiment 3 is administered through the tail vein and administered once every other day, and the animals used are sacrificed 14 days after the administration, and the tumors are removed and weighed, calculate tumor suppression rate and perform statistical processing. Tumor inhibition rate (%)=(average tumor weight in the control group-average tumor weight in the experimental group)/average tumor weight in the control group×100%.
as §4, with “RA-XII(2)” for “The RA-V nano-micelle”, “injection” for “injection prepared in Embodiment 3”

[8] = test system: KRAS dependent H441 cells; test: Western blot of autophagy-related proteins LC3, Atg7 and Beclin1; assay type: cell-based, human; settings: H441, 0, 50, 100, 200 nM, 24 hours
Procedure: (§5) KRAS dependent H441 and H358 cells which are cultured overnight in a 10% FBS medium are seeded in a 24-well plate at an appropriate density, after 24 hours, RA-V (1) with a concentration of 0, 50, 100, and 200 nM is added to react for 24 hours, and then the cells are collected to detect the expression levels of autophagy-related proteins LC3, Atg7 and Beclin1 by the Western blot experiment.

[9] = test system: KRAS dependent H358 cells; test: as above; assay type: cell-based, human; settings: H358, 0, 50, 100, 200 nM, 24 hours
Procedure: as §5

H441 cells = test: Western blot of Capsase3, BCL-2 and BCL-XL; assay type: cell-based, human
[10] = test system: KRAS dependent H441 cells; test: GFP-LC3 transfection, autophagosome formation by fluorescence microscope; assay type: cell-based, human; settings: H441, 24 hours
Procedure: (§6) KRAS dependent H441 and H358 cells which are cultured overnight in a 10% FBS medium are seeded in a 24-well plate at an appropriate density and transfected with the GFP-LC3 plasmid, after 24 hours, RA-V (1) is added to react for 24 hours, and the localization of GFP-LC3 is observed with a fluorescence microscope, and the number of autophagy cells is calculated quantitatively.

[11] = test system: KRAS dependent H358 cells; test: as above; assay type: cell-based, human; settings: H358, 24 hours
Procedure: as §6

[12] = test system: KRAS independent H460 model; test: Human lung cancer xenograft in nude mice, tumor inhibition rate; assay type: in vivo, BABL/c nude mice; settings: 2.5 mg/kg, nano-micelle injection, tail vein, once every other day, 14 days
Procedure: as §4, with “Human lung cancer cells KRAS dependent H441 and KRAS independent H460 are” for “HCT116 is”, “physiological saline” for “serum-free McCoy's 5a medium”, “form” for “form a”

[13] = test system: KRAS dependent H441 model; test: as above; assay type: in vivo, BABL/c nude mice; settings: 2.5 mg/kg, nano-micelle injection, tail vein, once every other day, 14 days
Procedure: as §4, with “Human lung cancer cells KRAS dependent H441 and KRAS independent H460 are” for “HCT116 is”, “physiological saline” for “serum-free McCoy's 5a medium”, “form” for “form a”

COc1ccc(C[C@H]2C(=O)N[C@@H](C)C(=O)N(C)C3Cc4ccc(cc4)Oc4cc(ccc4O)C[C@@H](C(=O)N[C@H](C)C(=O)N[C@@H](C)C(=O)N2C)N(C)C3=O)cc1 [RA-V (1), RA-V]
cell survival (MTT) [1]: inhibits the survival
cell survival (MTT) [2]: inhibits the survival
cell apoptosis by expression of Capsase3, BCL-2 and BCL-XL (H460 cells): no significant effect
cell apoptosis by expression of Capsase3, BCL-2 and BCL-XL (A549 cells): no significant effect
cell apoptosis (PI/Annexin V) [3]: significantly induces the cell apoptosis
cell apoptosis (PI/Annexin V) [4]: no significant effect
cell apoptosis (PI/Annexin V) [5]: no significant effect
cell apoptosis (PI/Annexin V) [6]: significantly induces the cell apoptosis
cell apoptosis by expression of Capsase3, BCL-2 and BCL-XL (H358 cells): significantly induces the cell apoptosis
tumor inhibition rate ([7]; HCT116, high dosage): 66.67%
tumor inhibition rate ([7]; HCT116, medium dosage): 41.67%
expression levels of LC3-II, Atg7 and Beclin1 [8]: decrease with the increase of the concentration
expression levels of LC3-II, Atg7 and Beclin1 [9]: decrease with the increase of the concentration
cell apoptosis by expression of Capsase3, BCL-2 and BCL-XL (H441 cells): significantly induces the cell apoptosis
GFP-LC3 of treated cells compared with the blank group [10]: significantly reduce
GFP-LC3 of treated cells compared with the blank group [11]: significantly reduce
anti-tumor effect [12]: not effective
tumor inhibition rate [13]: 50.4%

COc1ccc(C[C@H]2C(=O)N[C@@H](C)C(=O)N(C)C3Cc4ccc(cc4)Oc4cc(ccc4O[C@@H]4OC(CO)[C@@H](O)[C@H](O)C4O)C[C@@H](C(=O)N[C@H](C)C(=O)N[C@@H](C)C(=O)N2C)N(C)C3=O)cc1 (some centres unmarked) [RA-XII (2), RA-XII]
tumor inhibition rate ([7]; HCT116, high dosage): 79.92%
tumor inhibition rate ([7]; HCT116, medium dosage): 68.47%
